Assay results published in publication PMC6797808, “Fucosylated inhibitors of recently identified bangle lectin from Photorhabdus asymbiotica” (Scientific Reports, 2019).
In brackets after ≈: the same amount, converted by molar mass.

Assays:
PHL [1] = molecular target: T1, PHL (Photorhabdus asymbiotica, UniProt C7BLE4); assay: Hemagglutination inhibition assay with PHL (papain-treated human RBCs O); type: cell-based; settings: for MIC (minimal inhibitory concentration, hemagglutination by PHL): RBC O, two independent measurements; for PotencyL-Fuc: MIC L-fucose / MIC ligand; for β L-Fuc (affinity improvement factor): MICbasic unit/(valency × MICligand), basic unit L-Fuc; for β Azide1 (affinity improvement factor): basic unit azide 1
Method: The set of potential ligands 1–10 with different levels of fucosylation was tested, and their inhibition potency on hemagglutination by PHL was assessed (Table 1, Fig. 2). […] To assess the contribution of valency to the affinity increase, an affinity improvement factor β was calculated as the relationship MICbasic unit/(valency × MICligand).
Human red blood cells (RBCs) O were processed according to previously published work[16]. In brief, RBCs O treated with sodium citrate were washed four times by PBS buffer (137 mM NaCl, 2.7 mM KCl, 8 mM Na2HPO4, 1.47 mM KH2PO4, pH 7.4), diluted to 50% by PBS with 0.005% (w/w) sodium azide and treated by 0.1% papain for the duration of 30 minutes.
Hemagglutination inhibition assay was performed for specificity and semi-quantitative affinity of the PHL interaction with the compounds. All carbohydrate inhibitors in 50 mM starting concentration were serially diluted in the PBS buffer and used for a determination of the lowest inhibiting concentration. As a blank, the PBS buffer supplemented with the appropriate amount of DMSO was used in order to exclude potential interference with the interaction. The individual samples were mixed with the lectin in concentration 2 mg/ml in a 5 μl:5 μl ratio. Thereafter, 10 μl of 10% RBCs O in PBS buffer was added, thoroughly mixed and incubated for 10 minutes at room temperature. Following incubation, the mixture was again mixed and the reaction was observed on microscope slides using Levenhuk 2L NG microscope with Levenhuk D2L digital camera (Levenhuk, USA). Imagines were obtained via software ToupView for Windows (Levenhuk). The positive (PHL without inhibitor) and negative control (reaction without PHL) were prepared and processed in the same way using the appropriate volume of PBS buffer instead of the not included components. The lowest concentration of inhibitor able to inhibit agglutination was determined and compared with the standard (L-fucose). Minimal inhibitory concentrations (MIC) of synthesised inhibitors were determined from two independent measurements.

PHL [2] = molecular target: T1, PHL; assay: Isothermal titration calorimetry of PHL with ligands; type: binding; settings: for Kd / −TΔS / −ΔG / −ΔH / n (stoichiometry): ITC at 25 °C; for n (stoichiometry): two independent measurements; for Potency L-Fuc: KD L-fucose / KD ligand; for β L-Fuc (affinity improvement factor): KD,basic unit/(valency × KD,ligand), basic unit L-Fuc; for β Azide1 (affinity improvement factor): basic unit azide 1
Source text: The binding of PHL to different α-L-fucoside compounds was further characterized by isothermal titration calorimetry (ITC), enabling determination of the complete thermodynamic profile of the molecular interactions (Table 3, Fig. 4). […] Because of this, it was not possible to evaluate the data, despite the obvious interaction. The dendrimers also cross-linked/aggregated the protein as with calixarenes, however the curves provided clear outcomes with an affinity in the low micromolar range. The dissociation constants (KD) of all dendrimers correlate with their valency – the higher number of fucose, the more decreased KD. […] The stoichiometry value n corresponds to the number of terminal fucoses per ligand molecule. The n value decreases from 4 to 1 as the number of fucose units increases from 1 to 12 (Table 3).
PHL protein in buffer A was equilibrated at room temperature at least for 30 min before ITC measurement. All ITC experiments were performed using ITC200 calorimeter (Malvern Panalytical, UK) at 25 °C. Carbohydrate ligands dissolved in buffer A were used at different concentrations. Protein in the calorimeter cell (50 μM) was titrated by consecutive additions (2 μl) of the ligand (1.5–5 mM) in the syringe while stirring at 1000 rpm. Integrated heat effects were analysed by nonlinear regression using a single-site binding model and global fitting in Origin 7 software (Microcal Instruments)[37]. The thermodynamic parameters of synthesised inhibitors were determined from two independent measurements.

[3] = system: P. asymbiotica subsp. australis cells; assay: Cell aggregation (cross-linking) assay; type: cell-based, Photorhabdus asymbiotica subsp. australis; settings: three independent measurements
Source text: Because of the aggregation of PHL by calixarenes and dendrimers during SPR and ITC experiments, we decided to compare tetravalent compounds at a higher level. We performed a series of in vitro aggregation assays to reveal their aggregation properties towards P. asymbiotica subsp. australis (Table 4, Fig. 5). Prior to each assay, we confirmed the absence of aggregates in two negative controls – bacterial cells in PBS buffer and in the presence of azide 1 as a monomer. With all chosen compounds, we observed bacterial aggregates of a variable size that confirmed that they are capable of interacting with a cell surface. This effect may be caused by interaction of the multivalent inhibitors with PHL or other receptors. The concentration of the first appearance of aggregates varied according to the nature of the ligand used. […] An unexpected observation was that calixarene 7 had the lowest aggregation potential. In contrast to other techniques (hemagglutination, SPR and ITC), where calixarenes 6 and 7 provided similar results, during cross-linking experiments calixarene 7 was four times worse than calixarene 6. At the same time, both tetrameric calixarenes 6 and 7 are in a 1,3-alternate conformation with the two-faced presentation of the fucopyranosyl epitopes on opposite regions probably occupying a similar spatial orientation. The only difference is the tert-Bu group on the upper rim in calixarene 6, which might contribute to nonpolar interactions with whole P. asymbiotica cells.
P. asymbiotica subsp. australis was inoculated from stock cells stored at −80 °C into a standard LB media and were grown in 30 °C under an orbital shaking overnight. Bacterial growth was tracked by measuring the optical density of the broth at 600 nm (OD600) using a spectrophotometer (Biochrom Ltd., BioPhotometer WGA CO 8000 Biowave). Cells were harvested when reaching an OD600 = 0.5. The culture was centrifuged at 4,300 g and room temperature for 2 minutes (Minispin, Eppendorf, Germany) and cells were then washed three times with PBS buffer. Cells were diluted in PBS to OD600 of 2.0 and kept in a fridge until performing the aggregation assay.
P. asymbiotica subsp. australis cells and fucosylated compounds in a concentration ranging from 50 mM to 3.125 mM were gently mixed in a 9:1 (v/v) ratio. The reaction mixtures were left at room temperature for 10 minutes. 5 µl of reaction mixture was then transferred onto a microscope slide and observed under a fluorescence microscope (OLYMPUS IX81 Microscope IX81F-3 with IX2-UCB-2 Controller and X-Cite 120PC Q; Olympus and Excelitas Technologies, Japan, resp. USA). As a negative control, bacterial cells with/without azide 1 as a monomer were used. Three independent measurements were performed.

T1 sequence (C7BLE4 entry or part of it): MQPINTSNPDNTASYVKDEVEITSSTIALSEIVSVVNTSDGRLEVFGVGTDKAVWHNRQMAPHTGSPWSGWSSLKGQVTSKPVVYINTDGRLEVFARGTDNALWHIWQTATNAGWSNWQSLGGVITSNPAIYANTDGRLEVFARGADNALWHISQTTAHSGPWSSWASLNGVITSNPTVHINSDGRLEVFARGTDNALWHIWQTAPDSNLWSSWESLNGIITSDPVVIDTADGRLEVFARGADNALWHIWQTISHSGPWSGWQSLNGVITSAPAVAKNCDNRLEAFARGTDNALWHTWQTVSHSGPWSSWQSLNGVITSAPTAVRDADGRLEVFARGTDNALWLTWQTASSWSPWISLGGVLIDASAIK

Row | SMILES | MIC (minimal inhibitory concentration, hemagglutination by PHL) (PHL [1]) [µM] | PotencyL-Fuc (PHL [1]; hemagglutination) | PotencyL-Fuc (PHL [1]; hemagglutination, listed as azide 1) | β L-Fuc (affinity improvement factor) (PHL [1]; hemagglutination) | β Azide1 (affinity improvement factor) (PHL [1]; hemagglutination) | Kd (PHL [2]) [µM] | −TΔS (PHL [2]) [kJ/mol] | −ΔG (PHL [2]) [kJ/mol] | −ΔH (PHL [2]) [kJ/mol] | n (stoichiometry) (PHL [2]) | Potency L-Fuc (PHL [2]; ITC) | β L-Fuc (affinity improvement factor) (PHL [2]; ITC) | β Azide1 (affinity improvement factor) (PHL [2]; ITC) | The lowest concentration able to aggregate P. asymbiotica cells [3] | PotencyAzide1 (PHL [1]; hemagglutination, relative to azide 1) | PotencyAzide1 (PHL [2]; ITC, relative to azide 1)
1 | C[C@@H]1O[C@@H](CCN=[N+]=[N-])[C@@H](O)[C@H](O)[C@@H]1O [Azide 1] | 200 (≈ 43.4 µg/mL) | 15.6 | 16 | 15.6 | 1 | 105 ± 9 | 20.2 ± 4.4 | 22.7 ± 2.0 | 42.9 ± 3.9 | 4.1 ± 0.3 | 13 | 13 | 1 | No visible aggregation in used concentrations | – | –
2 | C[C@@H]1O[C@@H](CCn2cc(COCC(COCc3cn(CC[C@@H]4O[C@@H](C)[C@@H](O)[C@@H](O)[C@@H]4O)nn3)(COCc3cn(CC[C@@H]4O[C@@H](C)[C@@H](O)[C@@H](O)[C@@H]4O)nn3)COCc3cn(CC[C@@H]4O[C@@H](C)[C@@H](O)[C@@H](O)[C@@H]4O)nn3)nn2)[C@@H](O)[C@H](O)[C@@H]1O [Dendrimer 8] | 50 (≈ 57.9 µg/mL) | 62.5 | – | 15.6 | 1 | 36.9 ± 3.7 | 28.6 ± 3.2 | 25.3 ± 2.5 | 53.8 ± 1.9 | 3.0 ± 0.1 | 38 | 9 | 1 | 0.625 mM | 4 | 3
